Reference: patent publication US11548903B2, “Bicyclic thiazine and oxazine derivatives as beta-secretase inhibitors and methods of use” (AMGEN INC., priority 2016, dated 2023)
Read-outs that look alike come from different tables or passages of the source.

Experiments:
human recombinant BACE2 = human recombinant BACE2 (Homo sapiens (Human), UniProt Q9Y5Z0); assay: In vitro enzymatic BACE2 FRET assay; format: biochemical; details: read-out: BACE2 Enzyme IC50
Method: (§1) In Vitro Enzymatic BACE1 and BACE2 FRET (Fluorescence Resonance Energy Transfer) Assays […] These recombinant proteins were further purified using Ni-NTA affinity chromatography (Qiagen). […] The assay was effectively started by the addition of FRET substrate (50 nM) and the combination was incubated for one hour. The FRET assay was terminated by the addition of tris buffer, which raised the pH to neutrality, and the fluorescence was determined. The FRET substrate was a peptide with commercially available fluorophore and quencher, on opposite sides of the BACE cleavage site. The specific FRET substrate used in this assay was made by Amgen in-house. Commercially available FRET substrates, for example, the FRET substrate offered with the BACE1 FRET Assay Kit sold by ThermoFisher Scientific (Catalog Number P2985), may be used in this assay with the appropriate modifications, which are within the purview of the ability of a person with ordinary skill in the art. Proteolytic cleavage of the FRET substrate released quenching of fluorescence (excitation 488 nm and emission 590 nm).

[1] = tested on: BACE1 (Aβ40 from cells stably expressing Amyloid Precursor Protein); assay: In vitro BACE1 cell-based assay (Aβ40 in conditioned medium, HTRF)
Method: In Vitro BACE1 Cell-Based Assay The cell-based assay measures inhibition or reduction of Aβ40 in conditioned medium of test compound treated cells expressing amyloid precursor protein. Cells stably expressing Amyloid Precursor Protein (APP) were plated at a density of 45K cells/well in 384 well plates (Corning/BioCoat 354663). The test compounds were then added to cells in 22-point dose response concentrations with the starting concentration being 62.5 μM. The compounds were diluted from stock solutions in DMSO and the final DMSO concentration of the test compounds on cells was 0.625%. The cells were cultivated overnight at 37° C. and 5% CO2 in DMEM supplemented with 10% FBS. After 24 h of incubation with the test compounds, the conditioned media was collected and the Aβ40 levels were determined using HTRF (Homogeneous Time Resolved Fluorescence). […] The HTRF to detect Aβ40 was performed in 384 well plates (Costar 3658). The antibody pair that were used to detect Aβ 40 from cell supernatants were ConfAb40 antibody (Amgen in-house) and biotinylated 6E10 (BIOLEGEND). As an alternative to ConfAb40, a commercially available antibody, Anti-beta Amyloid 1-40 antibody [BDI350] from Abcam, Cambridge, Mass. 02139-1517 (Product code: ab20068), may be used in this assay. […] The conditioned media was incubated with above antibodies and Streptavidin Allophycocyanin Conjugate for 30-60 minutes at 23° C. The final readout was performed on Envision from PerkinElmer.

human recombinant BACE1 = human recombinant BACE1 (Homo sapiens (Human), UniProt P56817); assay: In vitro enzymatic BACE1 FRET assay; format: biochemical; details: read-out: BACE1 Enzyme IC50
Method: as §1

Recombinant CatD = Recombinant CatD (Homo sapiens (Human), UniProt P07339); assay: In vitro enzymatic Cathepsin D (CatD) FRET assay; format: biochemical; details: read-out: Cat D Enzyme IC50
Method: In Vitro Enzymatic Cathepsin D (CatD) FRET Assay Recombinant CatD was expressed in CHO cells. The assay buffer for CatD was 0.05 M citrate pH 3.5, 10% DMSO final, 5 mM CHAPS. […] The assays was effectively started by the addition of different FRET substrates (20 nM for CatD) and the combination was incubated for one hour. The FRET assay was terminated with by addition of tris buffer, which raises the pH to neutrality, and the fluorescence was determined. The FRET substrate was a peptide with commercially available fluorophore and quencher, on opposite sides of the CatD cleavage site. The CatD substrate peptide sequence was based on sequence #1 of Table 1 from Gulnik et al., FEBS Lett. 413(2):379-384 (1997). Proteolytic cleavage of the FRET substrate released quenching of fluorescence (CatD excitation 500 nm and emission 580 nm). The in vitro CatD FRET assay data for each of the Examples is provided in Table 2, conducted by the first procedure described above. […] Thus, with this surprising selectivity profile, the compounds provided herein are believed to minimize, reduce or completely eliminate any risk of retinal atrophy and abnormal development of the eye and of the retinal pigmented epithelium as it relates to the normal function and activity of CatD.

[2] = 24 h, read-out: BACE1 Cell IC50 (μM)
[3] = Aβ40, 24 h incubation, read-out: BACE1 Cell IC50

Sequence of human recombinant BACE2 (Q9Y5Z0 63-518): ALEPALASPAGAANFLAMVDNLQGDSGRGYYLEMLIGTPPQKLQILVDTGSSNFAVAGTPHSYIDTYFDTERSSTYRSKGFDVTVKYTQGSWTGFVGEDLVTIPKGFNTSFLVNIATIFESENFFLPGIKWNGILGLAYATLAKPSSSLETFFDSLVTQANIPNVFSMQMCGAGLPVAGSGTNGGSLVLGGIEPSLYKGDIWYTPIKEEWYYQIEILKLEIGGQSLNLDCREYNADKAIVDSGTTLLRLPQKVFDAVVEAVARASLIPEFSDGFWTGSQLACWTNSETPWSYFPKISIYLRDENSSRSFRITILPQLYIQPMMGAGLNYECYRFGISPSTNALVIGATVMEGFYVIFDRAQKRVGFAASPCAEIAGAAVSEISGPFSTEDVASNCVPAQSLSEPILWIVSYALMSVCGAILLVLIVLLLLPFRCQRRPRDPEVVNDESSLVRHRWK
Sequence of human recombinant BACE1 (P56817 46-501): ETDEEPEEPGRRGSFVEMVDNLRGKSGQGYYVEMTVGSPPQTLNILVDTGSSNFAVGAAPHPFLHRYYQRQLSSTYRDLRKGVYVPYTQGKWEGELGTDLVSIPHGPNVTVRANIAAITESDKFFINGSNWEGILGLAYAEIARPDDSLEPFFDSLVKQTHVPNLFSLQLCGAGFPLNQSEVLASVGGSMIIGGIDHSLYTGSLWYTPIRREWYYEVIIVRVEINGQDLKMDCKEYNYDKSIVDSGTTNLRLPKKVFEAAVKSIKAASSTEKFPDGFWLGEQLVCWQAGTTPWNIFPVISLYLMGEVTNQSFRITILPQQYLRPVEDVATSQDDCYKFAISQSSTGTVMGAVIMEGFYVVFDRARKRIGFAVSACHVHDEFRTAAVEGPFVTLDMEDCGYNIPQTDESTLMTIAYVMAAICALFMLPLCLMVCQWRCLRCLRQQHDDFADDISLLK
Sequence of Recombinant CatD (P07339 65-412): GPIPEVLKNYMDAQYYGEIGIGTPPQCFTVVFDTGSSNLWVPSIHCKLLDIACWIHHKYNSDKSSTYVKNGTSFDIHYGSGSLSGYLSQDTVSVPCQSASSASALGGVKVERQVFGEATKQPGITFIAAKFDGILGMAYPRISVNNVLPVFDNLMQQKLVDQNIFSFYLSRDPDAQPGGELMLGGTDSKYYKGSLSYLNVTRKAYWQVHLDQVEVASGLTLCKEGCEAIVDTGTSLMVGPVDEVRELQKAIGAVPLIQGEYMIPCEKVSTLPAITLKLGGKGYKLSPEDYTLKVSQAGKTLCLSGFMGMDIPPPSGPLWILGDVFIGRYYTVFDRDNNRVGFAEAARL

Compound | IC50 (human recombinant BACE2) [nM] | IC50 (human recombinant BACE1) [nM] | IC50 (Recombinant CatD) [nM] | IC50 [1, 3] [µM] | IC50 [1, 2] [µM]
NC1=N[C@@]2(c3cc(/C=C(\F)c4cnc(OCC(F)(F)C(F)F)cn4)ccc3F)CN(c3ncc(F)cn3)C[C@H]2CS1 [Example 112, (4aR,7aS)-7a-(2-fluoro-5-((Z)-2-fluoro-2-(5-(2,2,3,3-tetrafluoropropoxy)pyrazin-2-yl)vinyl)phenyl)-6-(5-fluoropyrimidin-2-yl)-4,4a,5,6,7,7a-hexahydropyrrolo[3,4-d][1,3]thiazin-2-amine] | 136 | 108 | 1320 | – | 0.02
C#CCOc1cnc(/C(F)=C/c2ccc(F)c([C@]34CN(C(=O)OC(C)(C)C)C[C@H]3CSC(N)=N4)c2)cn1 [Example 116, (4aR,7aS)-tert-butyl 2-amino-7a-(2-fluoro-5-((Z)-2-fluoro-2-(5-(prop-2-yn-1-yloxy)pyrazin-2-yl)vinyl)phenyl)-4a,5,7,7a-tetrahydropyrrolo[3,4-d][1,3]thiazine-6(4H)-carboxylate] | 52 | 2.53 | 28600 | – | 0.00188
C#CCOc1cnc(/C(F)=C/c2ccc(F)c([C@]34CN(C(=O)OC)C[C@H]3CSC(N)=N4)c2)cn1 [Example 121, (4aR,7aS)-methyl 2-amino-7a-(2-fluoro-5-((Z)-2-fluoro-2-(5-(prop-2-yn-1-yloxy)pyrazin-2-yl)vinyl)phenyl)-4a,5,7,7a-tetrahydropyrrolo[3,4-d][1,3]thiazine-6(4H)-carboxylate] | 258 | 1.59 | 47900 | – | 0.00679
C#CCOc1cnc(/C(F)=C/c2ccc(F)c([C@]34CN(C(=O)OCC)C[C@H]3CSC(N)=N4)c2)cn1 [Example 123, (4aR,7aS)-ethyl 2-amino-7a-(2-fluoro-5-((Z)-2-fluoro-2-(5-(prop-2-yn-1-yloxy)pyrazin-2-yl)vinyl)phenyl)-4a,5,7,7a-tetrahydropyrrolo[3,4-d][1,3]thiazine-6(4H)-carboxylate] | 214 | 4.5 | 36500 | – | 0.00478
C#CCOc1cnc(/C(F)=C/c2ccc(F)c([C@]34CN(C(=O)OC(C)C)C[C@H]3CSC(N)=N4)c2)cn1 [Example 124, (4aR,7aS)-isopropyl 2-amino-7a-(2-fluoro-5-((Z)-2-fluoro-2-(5-(prop-2-yn-1-yloxy)pyrazin-2-yl)vinyl)phenyl)-4a,5,7,7a-tetrahydropyrrolo[3,4-d][1,3]thiazine-6(4H)-carboxylate] | 92.2 | 2.62 | 23800 | – | 0.00269
C#CCOc1cnc(/C(F)=C/c2ccc(F)c([C@]34CO[C@H](C(F)(F)F)[C@H]3CSC(N)=N4)c2)cn1 [Example 127, (4aS,5S,7aS)-7a-(2-fluoro-5-((Z)-2-fluoro-2-(5-(prop-2-ynyloxy)pyrazin-2-yl)vinyl)phenyl)-5-(trifluoromethyl)-4a,5,7,7a-tetrahydro-4H-furo[3,4-d][1,3]thiazin-2-amine] | 2900 | 103 | 160000 | – | 0.0243

Now from value to compound, other results behind:

IC50 (human recombinant BACE2) [nM] | IC50 (human recombinant BACE1) [nM] | IC50 (Recombinant CatD) [nM] | IC50 [1, 3] [µM] | Compound | IC50 [1, 2] [µM]
38.1 | 22.6 | 26600 | 0.00935 | NC1=N[C@@]2(c3cc(/C=C(\F)c4cnc(OCC(F)F)cn4)ccc3F)CN(c3ncc(F)cn3)C[C@H]2CS1 [Example 113, (4aR,7aS)-7a-(5-((Z)-2-(5-(2,2-difluoroethoxy)pyrazin-2-yl)-2-fluorovinyl)-2-fluorophenyl)-6-(5-fluoropyrimidin-2-yl)-4,4a,5,6,7,7a-hexahydropyrrolo[3,4-d][1,3]thiazin-2-amine] | –
30.6 | 8.96 | 38700 | 0.00257 | COC[C@H](C)Oc1cnc(/C(F)=C/c2ccc(F)c([C@]34CN(c5ncc(F)cn5)C[C@H]3CSC(N)=N4)c2)cn1 [Example 114, (4aR,7aS)-7a-(2-fluoro-5-((Z)-2-fluoro-2-(5-(((S)-1-methoxypropan-2-yl)oxy)pyrazin-2-yl)vinyl)phenyl)-6-(5-fluoropyrimidin-2-yl)-4,4a,5,6,7,7a-hexahydropyrrolo[3,4-d][1,3]thiazin-2-amine] | –
15.3 | 1.01 | 18900 | 0.000542 | C#C[C@H](C)Oc1cnc(/C(F)=C/c2ccc(F)c([C@]34CN(c5ncc(F)cn5)C[C@H]3CSC(N)=N4)c2)cn1 [Example 115, (4aR,7aS)-7a-(5-((Z)-2-(5-((S)-but-3-yn-2-yloxy)pyrazin-2-yl)-2-fluorovinyl)-2-fluorophenyl)-6-(5-fluoropyrimidin-2-yl)-4,4a,5,6,7,7a-hexahydropyrrolo[3,4-d][1,3]thiazin-2-amine] | –
2.79 | 0.286 | 13200 | 0.00038 | CC#CCOc1cnc(/C(F)=C/c2ccc(F)c([C@]34CN(c5ncc(F)cn5)C[C@H]3CSC(N)=N4)c2)cn1 [Example 117, (4aR,7aS)-7a-(5-((Z)-2-(5-(but-2-yn-1-yloxy)pyrazin-2-yl)-2-fluorovinyl)-2-fluorophenyl)-6-(5-fluoropyrimidin-2-yl)-4,4a,5,6,7,7a-hexahydropyrrolo[3,4-d][1,3]thiazin-2-amine] | –
510 | 9.45 | 105000 | 0.0265 | C#CCOc1cnc(/C(F)=C/c2ccc(F)c([C@]34CN(C(=O)CC(F)(F)F)C[C@H]3CSC(N)=N4)c2)cn1 [Example 119, 1-((4aR,7aS)-2-amino-7a-(2-fluoro-5-((Z)-2-fluoro-2-(5-(prop-2-yn-1-yloxy)pyrazin-2-yl)vinyl)phenyl)-4a,5,7,7a-tetrahydropyrrolo[3,4-d][1,3]thiazin-6(4H)-yl)-3,3,3-trifluoropropan-1-one] | –
34 | 0.186 | 6300 | 0.00076 | C#CCOc1cnc(/C(F)=C/c2ccc(F)c([C@]34CN(c5ncccn5)C[C@H]3CSC(N)=N4)c2)cn1 [Example 120, (4aR,7aS)-7a-(2-fluoro-5-((Z)-2-fluoro-2-(5-(prop-2-yn-1-yloxy)pyrazin-2-yl)vinyl)phenyl)-6-(pyrimidin-2-yl)-4,4a,5,6,7,7a-hexahydropyrrolo[3,4-d][1,3]thiazin-2-amine] | –
353 | 2.36 | 87900 | 0.0086 | C#CCOc1cnc(/C(F)=C/c2ccc(F)c([C@]34CN(C(=O)CC)C[C@H]3CSC(N)=N4)c2)cn1 [Example 122, 1-((4aR,7aS)-2-amino-7a-(2-fluoro-5-((Z)-2-fluoro-2-(5-(prop-2-yn-1-yloxy)pyrazin-2-yl)vinyl)phenyl)-4a,5,7,7a-tetrahydropyrrolo[3,4-d][1,3]thiazin-6(4H)-yl)propan-1-one] | –
18000 | 2540 | 30600 | 1.39 | N#Cc1ccc(/C(F)=C/c2ccc(F)c([C@@]34CO[C@@H](C(F)(F)F)[C@@H]3CSC(N)=N4)c2)nc1 [Example 125, 6-((Z)-2-(3-((4aR,5R,7aR)-2-amino-5-(trifluoromethyl)-4a,5,7,7a-tetrahydro-4H-furo[3,4-d][1,3]thiazin-7a-yl)-4-fluorophenyl)-1-fluorovinyl)nicotinonitrile] | –
